Assay results: the NIST ThermoML archive (doi:10.1021/je060271a)
± gives the expanded uncertainty stated by the source.

Settings: 343.15 K, Liquid, Vibrating tube method

With `CCCCC(=O)OCC(COC(=O)CCCC)(COC(=O)CCCC)COC(=O)CCCC` [pentaerythritol tetrapentanoate] the mass density (18558 kPa) was 992.3 ± 1.2 kg/m3, the mass density (18600 kPa) was 992.4 ± 1.2 kg/m3 and the mass density (18634 kPa) was 992.4 ± 1.2 kg/m3. For the same compound, the mass density (18668 kPa) was 992.5 ± 1.2 kg/m3, the mass density (18709 kPa) was 992.5 ± 1.2 kg/m3 and the mass density (18744 kPa) was 992.5 ± 1.2 kg/m3. For the same compound, the mass density (18780 kPa) was 992.5 ± 1.2 kg/m3, the mass density (18821 kPa) was 992.4 ± 1.2 kg/m3 and the mass density (18857 kPa) was 992.7 ± 1.2 kg/m3. The mass density (18892 kPa) was 992.5 ± 1.2 kg/m3, the mass density (18935 kPa) was 992.7 ± 1.2 kg/m3 and the mass density (18971 kPa) was 992.6 ± 1.2 kg/m3. It also gave a mass density (19007 kPa) of 992.6 ± 1.2 kg/m3, a mass density (19052 kPa) of 992.7 ± 1.2 kg/m3 and a mass density (19088 kPa) of 992.6 ± 1.2 kg/m3. The mass density (19126 kPa) was 992.7 ± 1.2 kg/m3, the mass density (19172 kPa) was 992.8 ± 1.2 kg/m3 and the mass density (19211 kPa) was 992.9 ± 1.2 kg/m3. It also gave a mass density (19248 kPa) of 992.8 ± 1.2 kg/m3, a mass density (19284 kPa) of 992.9 ± 1.2 kg/m3 and a mass density (19312 kPa) of 992.8 ± 1.2 kg/m3. It also gave a mass density (19340 kPa) of 992.9 ± 1.2 kg/m3, a mass density (19368 kPa) of 992.9 ± 1.2 kg/m3 and a mass density (19401 kPa) of 992.9 ± 1.2 kg/m3. The mass density (19429 kPa) was 992.9 ± 1.2 kg/m3, the mass density (19458 kPa) was 993 ± 1.2 kg/m3 and the mass density (19491 kPa) was 992.9 ± 1.2 kg/m3. For the same compound, the mass density (19520 kPa) was 993.1 ± 1.2 kg/m3, the mass density (19549 kPa) was 993.1 ± 1.2 kg/m3 and the mass density (19579 kPa) was 993 ± 1.2 kg/m3. For the same compound, the mass density (19613 kPa) was 993 ± 1.2 kg/m3, the mass density (19638 kPa) was 993.1 ± 1.2 kg/m3 and the mass density (19666 kPa) was 993.2 ± 1.2 kg/m3. It also gave a mass density (19689 kPa) of 993.1 ± 1.2 kg/m3, a mass density (19713 kPa) of 993 ± 1.2 kg/m3 and a mass density (19737 kPa) of 993.1 ± 1.2 kg/m3. The mass density (19761 kPa) was 993.2 ± 1.2 kg/m3, the mass density (19789 kPa) was 993.2 ± 1.2 kg/m3 and the mass density (19813 kPa) was 993.2 ± 1.2 kg/m3. It also gave a mass density (19836 kPa) of 993.2 ± 1.2 kg/m3, a mass density (19864 kPa) of 993.2 ± 1.2 kg/m3 and a mass density (19888 kPa) of 993.3 ± 1.2 kg/m3. The mass density (19912 kPa) was 993.3 ± 1.2 kg/m3, the mass density (19941 kPa) was 993.3 ± 1.2 kg/m3 and the mass density (19964 kPa) was 993.3 ± 1.2 kg/m3. It also gave a mass density (19988 kPa) of 993.4 ± 1.2 kg/m3, a mass density (20017 kPa) of 993.3 ± 1.2 kg/m3 and a mass density (20042 kPa) of 993.4 ± 1.2 kg/m3. For the same compound, the mass density (20066 kPa) was 993.3 ± 1.2 kg/m3, the mass density (20095 kPa) was 993.4 ± 1.2 kg/m3 and the mass density (20119 kPa) was 993.6 ± 1.2 kg/m3. It also gave a mass density (20143 kPa) of 993.5 ± 1.2 kg/m3, a mass density (20173 kPa) of 993.5 ± 1.2 kg/m3 and a mass density (20197 kPa) of 993.5 ± 1.2 kg/m3. The mass density (20222 kPa) was 993.5 ± 1.2 kg/m3, the mass density (20251 kPa) was 993.5 ± 1.2 kg/m3 and the mass density (20276 kPa) was 993.5 ± 1.2 kg/m3. For the same compound, the mass density (20301 kPa) was 993.6 ± 1.2 kg/m3, the mass density (20330 kPa) was 993.7 ± 1.2 kg/m3 and the mass density (20355 kPa) was 993.4 ± 1.2 kg/m3. For the same compound, the mass density (20381 kPa) was 993.7 ± 1.2 kg/m3, the mass density (20410 kPa) was 993.7 ± 1.2 kg/m3 and the mass density (20436 kPa) was 993.7 ± 1.2 kg/m3. It also gave a mass density (20461 kPa) of 993.5 ± 1.2 kg/m3, a mass density (20487 kPa) of 993.7 ± 1.2 kg/m3 and a mass density (20517 kPa) of 993.6 ± 1.2 kg/m3. The mass density (20542 kPa) was 993.6 ± 1.2 kg/m3, the mass density (20568 kPa) was 993.7 ± 1.2 kg/m3 and the mass density (20598 kPa) was 993.7 ± 1.2 kg/m3. The mass density (20629 kPa) was 993.8 ± 1.2 kg/m3, the mass density (20660 kPa) was 993.8 ± 1.2 kg/m3 and the mass density (20687 kPa) was 993.8 ± 1.2 kg/m3. It also gave a mass density (20713 kPa) of 993.9 ± 1.2 kg/m3, a mass density (20740 kPa) of 993.9 ± 1.2 kg/m3 and a mass density (20770 kPa) of 993.8 ± 1.2 kg/m3. It also gave a mass density (20797 kPa) of 993.9 ± 1.2 kg/m3, a mass density (20823 kPa) of 993.8 ± 1.2 kg/m3 and a mass density (20854 kPa) of 993.9 ± 1.2 kg/m3. For the same compound, the mass density (20880 kPa) was 994 ± 1.2 kg/m3, the mass density (20907 kPa) was 993.9 ± 1.2 kg/m3 and the mass density (20939 kPa) was 994 ± 1.2 kg/m3. For the same compound, the mass density (20965 kPa) was 994 ± 1.2 kg/m3, the mass density (20992 kPa) was 994.1 ± 1.2 kg/m3 and the mass density (21020 kPa) was 993.9 ± 1.2 kg/m3. The mass density (21052 kPa) was 994.1 ± 1.2 kg/m3, the mass density (21079 kPa) was 994.1 ± 1.2 kg/m3 and the mass density (21106 kPa) was 994.1 ± 1.2 kg/m3. For the same compound, the mass density (21254 kPa) was 994.2 ± 1.2 kg/m3, the mass density (21281 kPa) was 994.3 ± 1.2 kg/m3 and the mass density (21309 kPa) was 994.2 ± 1.2 kg/m3. It also gave a mass density (21342 kPa) of 994.3 ± 1.2 kg/m3, a mass density (21370 kPa) of 994.3 ± 1.2 kg/m3 and a mass density (22531 kPa) of 995.1 ± 1.2 kg/m3. It also gave a mass density (22626 kPa) of 995.2 ± 1.2 kg/m3, a mass density (22664 kPa) of 995 ± 1.2 kg/m3 and a mass density (22696 kPa) of 995.3 ± 1.2 kg/m3. It also gave a mass density (23251 kPa) of 995.5 ± 1.2 kg/m3, a mass density (23324 kPa) of 995.7 ± 1.2 kg/m3 and a mass density (23466 kPa) of 995.7 ± 1.2 kg/m3. The mass density (23985 kPa) was 996.2 ± 1.2 kg/m3, the mass density (24021 kPa) was 996 ± 1.2 kg/m3 and the mass density (24064 kPa) was 996 ± 1.2 kg/m3. It also gave a mass density (24136 kPa) of 996.2 ± 1.2 kg/m3, a mass density (24180 kPa) of 996.1 ± 1.2 kg/m3 and a mass density (24216 kPa) of 996.2 ± 1.2 kg/m3. For the same compound, the mass density (24253 kPa) was 996.2 ± 1.2 kg/m3, the mass density (24297 kPa) was 996.3 ± 1.2 kg/m3 and the mass density (24334 kPa) was 996.4 ± 1.2 kg/m3. The mass density (24371 kPa) was 996.3 ± 1.2 kg/m3, the mass density (24415 kPa) was 996.2 ± 1.2 kg/m3 and the mass density (24452 kPa) was 996.3 ± 1.2 kg/m3. For the same compound, the mass density (24490 kPa) was 996.5 ± 1.2 kg/m3, the mass density (24529 kPa) was 996.4 ± 1.2 kg/m3 and the mass density (24574 kPa) was 996.5 ± 1.2 kg/m3. It also gave a mass density (24612 kPa) of 996.4 ± 1.2 kg/m3, a mass density (24650 kPa) of 996.5 ± 1.2 kg/m3 and a mass density (24696 kPa) of 996.4 ± 1.2 kg/m3. The mass density (24734 kPa) was 996.4 ± 1.2 kg/m3, the mass density (24772 kPa) was 996.5 ± 1.2 kg/m3 and the mass density (24856 kPa) was 996.5 ± 1.2 kg/m3. It also gave a mass density (24895 kPa) of 996.7 ± 1.2 kg/m3, a mass density (24934 kPa) of 996.7 ± 1.2 kg/m3 and a mass density (24981 kPa) of 996.8 ± 1.2 kg/m3. For the same compound, the mass density (25274 kPa) was 996.9 ± 1.2 kg/m3, the mass density (25314 kPa) was 997 ± 1.2 kg/m3 and the mass density (25354 kPa) was 996.9 ± 1.2 kg/m3. It also gave a mass density (25839 kPa) of 997.2 ± 1.2 kg/m3, a mass density (25895 kPa) of 997.4 ± 1.2 kg/m3 and a mass density (26210 kPa) of 997.4 ± 1.2 kg/m3. The mass density (26261 kPa) was 997.5 ± 1.2 kg/m3, the mass density (26310 kPa) was 997.5 ± 1.2 kg/m3 and the mass density (26350 kPa) was 997.5 ± 1.2 kg/m3. The mass density (26385 kPa) was 997.6 ± 1.2 kg/m3, the mass density (26426 kPa) was 997.6 ± 1.2 kg/m3 and the mass density (26460 kPa) was 997.6 ± 1.2 kg/m3. For the same compound, the mass density (26502 kPa) was 997.8 ± 1.2 kg/m3, the mass density (26536 kPa) was 997.7 ± 1.2 kg/m3 and the mass density (26571 kPa) was 997.8 ± 1.2 kg/m3. For the same compound, the mass density (26607 kPa) was 997.7 ± 1.2 kg/m3, the mass density (26649 kPa) was 997.7 ± 1.2 kg/m3 and the mass density (26684 kPa) was 997.9 ± 1.2 kg/m3. The mass density (26720 kPa) was 997.9 ± 1.2 kg/m3, the mass density (26756 kPa) was 997.9 ± 1.2 kg/m3 and the mass density (26800 kPa) was 997.9 ± 1.2 kg/m3. The mass density (26835 kPa) was 998 ± 1.2 kg/m3, the mass density (26871 kPa) was 998 ± 1.2 kg/m3 and the mass density (26914 kPa) was 998 ± 1.2 kg/m3. For the same compound, the mass density (26950 kPa) was 998 ± 1.2 kg/m3, the mass density (26986 kPa) was 998 ± 1.2 kg/m3 and the mass density (27029 kPa) was 998.1 ± 1.2 kg/m3. It also gave a mass density (27065 kPa) of 998.2 ± 1.2 kg/m3, a mass density (27101 kPa) of 998 ± 1.2 kg/m3 and a mass density (27145 kPa) of 998.2 ± 1.2 kg/m3. For the same compound, the mass density (27182 kPa) was 998.1 ± 1.2 kg/m3, the mass density (27219 kPa) was 998.2 ± 1.2 kg/m3 and the mass density (27256 kPa) was 998.2 ± 1.2 kg/m3. It also gave a mass density (27301 kPa) of 998.2 ± 1.2 kg/m3, a mass density (27339 kPa) of 998.2 ± 1.2 kg/m3 and a mass density (27376 kPa) of 998.2 ± 1.2 kg/m3. The mass density (27421 kPa) was 998.2 ± 1.2 kg/m3 and the mass density (27458 kPa) was 998.2 ± 1.2 kg/m3.
